Assay [1] deals with T1, human TDO (TDO-expressing HEK293 cells) (Homo sapiens, UniProt P48775).
T1 construct: expressed in transfected cells
Put plainly: Cell based kynurenine assay, TDO-expressing HEK293 cell clones. As to conditions: TDO-expressing HEK293 cells, 24 hours incubation; geometric mean; read-out: HEK293 TDO Kynurenine GMean IC50 (μM) (Cellular Assay). The essentials:
(§1)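 HEK293 stable clones (hIDO1 or hTDO, CMV-driven; G418-selected); 2.5×10^4 cells/well; compound serial dilution, 24 h, 37 °C, 5% CO2; supernatant kynurenine; IC50 by nonlinear fit.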

Assay [2] has as its target T2, Human Indoleamine 2,3-dioxygenase (IDO) (Homo sapiens, UniProt P14902).
T2 construct: His tag (N); made in house; host or cells: E. coli
Nature of the assay: Human IDO enzymatic assay (kynurenine level). The class given is biochemical. As to conditions: 6 nM IDO, 10 μM L-Trp; geometric mean; read-out: IDO1 GMean: IC50 (μM) (Biochemical Assay). In short, it runs like this:
(§2)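 N-His human IDO (6 nM, 10 μM L-Trp, 5 μM methylene blue, 20 min) or TDO (1 nM, 350 μM L-Trp, 0.4 μM methylene blue, 70 min) run at room temp in pH 6.5 phosphate with ascorbate, catalase, Tween 20. TCA stop, 30 min 50 °C converts N-formylkynurenine to kynurenine; IC50 by nonlinear regression.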

For assay [3], the target named is T3, human IDO (IDO1-expressing HEK293 cells) (Homo sapiens, UniProt P14902).
T3 construct: expressed in transfected cells
T3 sequence (P14902 whole entry): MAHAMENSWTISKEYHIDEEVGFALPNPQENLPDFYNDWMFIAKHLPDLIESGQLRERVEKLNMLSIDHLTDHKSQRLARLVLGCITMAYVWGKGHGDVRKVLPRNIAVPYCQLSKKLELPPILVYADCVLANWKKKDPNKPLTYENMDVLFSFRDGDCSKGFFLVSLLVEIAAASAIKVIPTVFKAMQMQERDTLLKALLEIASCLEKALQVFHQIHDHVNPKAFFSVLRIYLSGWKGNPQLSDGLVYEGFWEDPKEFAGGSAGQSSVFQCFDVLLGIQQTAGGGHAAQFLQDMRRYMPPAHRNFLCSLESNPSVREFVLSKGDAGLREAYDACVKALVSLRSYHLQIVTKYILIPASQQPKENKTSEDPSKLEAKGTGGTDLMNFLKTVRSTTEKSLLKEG
Nature of the assay: Cell based kynurenine assay, IDO1-expressing HEK293 cell clones. As to conditions: IDO1-expressing HEK293 cells, 24 hours incubation; geometric mean; read-out: HEK293 IDO1 Kynurenine GMean IC50 (μM) (Cellular Assay). In short, it runs like this:
as §1

Assay [4] concerns the target T4, Human Tryptophan 2,3-dioxygenase (TDO) (Homo sapiens, UniProt P48775).
T4 construct: His tag (N); made in house; host or cells: E. coli
Put plainly: Human TDO enzymatic assay (kynurenine level). The class given is biochemical. To be noted: 1 nM TDO, 350 μM L-Trp; geometric mean; read-out: TDO GMean: IC50 (μM) (Biochemical Assay). The essentials: as §2

T1 sequence (P48775 whole entry): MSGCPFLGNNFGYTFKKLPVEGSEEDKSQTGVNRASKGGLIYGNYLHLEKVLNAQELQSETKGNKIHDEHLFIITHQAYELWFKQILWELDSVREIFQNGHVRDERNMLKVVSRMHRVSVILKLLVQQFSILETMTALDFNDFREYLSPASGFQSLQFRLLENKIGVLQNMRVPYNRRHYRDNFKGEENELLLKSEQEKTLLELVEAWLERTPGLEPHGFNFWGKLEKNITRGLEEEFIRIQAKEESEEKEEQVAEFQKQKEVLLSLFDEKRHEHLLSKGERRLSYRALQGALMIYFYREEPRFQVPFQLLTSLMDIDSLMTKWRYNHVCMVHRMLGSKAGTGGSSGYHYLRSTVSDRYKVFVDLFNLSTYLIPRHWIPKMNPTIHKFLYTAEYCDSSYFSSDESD
T4 sequence (P48775 whole entry): as above
T2 sequence (P14902 whole entry): as the sequence (P14902 whole entry) above

With `CC1(C)CN(c2cc(Cl)cc3cn[nH]c23)CCN1S(C)(=O)=O` [Compound P-0089, 5-chloro-7-(3,3-dimethyl-4-(methylsulfonyl)piperazin-1-yl)-1H-indazole], the 50% inhibitory concentration (IC50) in assay [1], in assay [2], in assay [3] and in assay [4] was 0.0001 to 10 µM each time.
For the compound `Cc1cc(N2CCN(S(C)(=O)=O)C(C)(C)C2)c2[nH]ncc2c1` [Compound P-0090, 7-(3,3-dimethyl-4-(methylsulfonyl)piperazin-1-yl)-5-methyl-1H-indazole], the half-maximal inhibitory concentration (IC50) in assay [1], in assay [2], in assay [3] and in assay [4] was 0.0001 to 10 µM in each case.
In the case of `CC1(C)CN(c2cc(C(F)(F)F)cc3cn[nH]c23)CCN1S(C)(=O)=O` [Compound P-0091], the concentration for half-maximal inhibition (IC50) in assay [1], in assay [2], in assay [3] and in assay [4] was 0.0001 to 10 µM throughout.
For the compound `CC1(C)CN(c2c(F)c(Cl)cc3cn[nH]c23)CCN1S(C)(=O)=O` [Compound P-0092, 5-chloro-7-(3,3-dimethyl-4-(methylsulfonyl)piperazin-1-yl)-6-fluoro-1H-indazole], the IC50 in assay [1], in assay [2], in assay [3] and in assay [4] was 0.0001 to 10 µM in each case.
As to `CS(=O)(=O)N1C2CCC1CN(c1cc(Cl)cc3cn[nH]c13)C2` [Compound P-0093, 5-chloro-7-(8-(methylsulfonyl)-3,8-diazabicyclo[3.2.1]octan-3-yl)-1H-indazole], the half-maximal inhibitory concentration (IC50) in assay [1], in assay [2], in assay [3] and in assay [4] was 0.0001 to 10 µM in each case.
For `Cc1cc(N2CC3CCC(C2)N3S(C)(=O)=O)c2[nH]ncc2c1` [Compound P-0094, 5-methyl-7-(8-(methylsulfonyl)-3,8-diazabicyclo[3.2.1]octan-3-yl)-1H-indazole], the IC50 in assay [1] is 0.0001 to 10 µM; in assay [2], 0.0001 to 10 µM; in assay [3] it was greater than 10 µM; in assay [4] it was 0.0001 to 10 µM.
Turning to `CS(=O)(=O)N1C2CCC1CN(c1cc(C(F)(F)F)cc3cn[nH]c13)C2` [Compound P-0095, 7-(8-(methylsulfonyl)-3,8-diazabicyclo[3.2.1]octan-3-yl)-5-(trifluoromethyl)-1H-indazole], the IC50 in assay [1], in assay [2], in assay [3] and in assay [4] was 0.0001 to 10 µM in each case.
Take `CS(=O)(=O)N1C2CCC1CN(c1c(F)c(Cl)cc3cn[nH]c13)C2` [Compound P-0096, 5-chloro-6-fluoro-7-(8-(methylsulfonyl)-3,8-diazabicyclo[3.2.1]octan-3-yl)-1H-indazole]: the half-inhibitory concentration (IC50) in assay [1] is 0.0001 to 10 µM; in assay [2], 0.0001 to 10 µM; in assay [3], greater than 10 µM; in assay [4] it was 0.0001 to 10 µM.
In the case of `CC1(C)CN(c2cc(Cl)c(F)c3cn[nH]c23)CCN1S(C)(=O)=O` [Compound P-0097, 5-chloro-7-(3,3-dimethyl-4-(methylsulfonyl)piperazin-1-yl)-4-fluoro-1H-indazole], the IC50 in assay [1], in assay [2], in assay [3] and in assay [4] was 0.0001 to 10 µM each time.
On to `CC1(C(O)c2c(Cl)ccn3cncc23)CCCCC1` (centres unmarked) [Compound P-0098, (7-chloroimidazo[1,5-a]pyridin-8-yl)(1-methylcyclohexyl)methanol], for which the IC50 in assay [1] was greater than 10 µM; in assay [2] it was 0.0001 to 10 µM; in assay [3] it was 0.0001 to 10 µM; in assay [4], 0.0001 to 10 µM.
As for `CC1(C(O)c2c3c(cc4cn[nH]c24)CCC3)CCCCC1` (centres unmarked) [Compound P-0099, (1-methylcyclohexyl)(1,5,6,7-tetrahydrocyclopenta[f]indazol-8-yl)methanol], the IC50 in assay [1], in assay [2], in assay [3] and in assay [4] was 0.0001 to 10 µM in each case.
For the compound `OC1(c2cc(Cl)cc3cn[nH]c23)CC2(C1)[C@H]1C[C@@H]3C[C@@H](C[C@H]2C3)C1` (stereo partly drawn) [Compound P-0100, (1R,5S)-3′-(5-chloro-1H-indazol-7-yl)spiro[adamantane-2,1′-cyclobutan]-3′-ol], the concentration for half-maximal inhibition (IC50) in assay [1], in assay [2], in assay [3] and in assay [4] was 0.0001 to 10 µM in each case.
`N#CC1CC=C(c2cc(Cl)cc3cn[nH]c23)CC1` (stereo not drawn) [Compound P-0105, 4-(5-chloro-1H-indazol-7-yl)cyclohex-3-ene-l-carbonitrile]: the IC50 in assay [1], in assay [2], in assay [3] and in assay [4] was 0.0001 to 10 µM in each case.
On to `O=C1NCCC12CCN(c1cc(Cl)cc3cn[nH]c13)CC2` [Compound P-0111, 8-(5-chloro-1H-indazol-7-yl)-2,8-diazaspiro[4.5]decan-l-one], for which the IC50 in assay [1], in assay [2], in assay [3] and in assay [4] was 0.0001 to 10 µM throughout.
In the case of `CC1(C(O)c2c(F)c(Cl)c(F)c3cn[nH]c23)CC(F)(F)C1` (centres unmarked) [Compound P-0112, (5-chloro-4,6-difluoro-1H-indazol-7-yl)(3,3-difluoro-1-methylcyclobutyl)methanol], the IC50 in assay [1], in assay [2], in assay [3] and in assay [4] was 0.0001 to 10 µM throughout.
As to `OC1(c2cc(Cl)cc3cn[nH]c23)CC2(C1)C1CC3CC(C1)CC2C3` (centres unmarked) [Compound P-0113, (1r,3r,5r,7r)-3′-(5-chloro-1H-indazol-7-yl)spiro[adamantane-2,1′-cyclobutan]-3′-ol], the half-maximal inhibitory concentration (IC50) in assay [1], in assay [2], in assay [3] and in assay [4] was 0.0001 to 10 µM each time.
Regarding `CC1(C(O)c2c(F)c(Cl)cc3cn[nH]c23)CC(F)(F)C1` (centres unmarked) [Compound P-0114, (5-chloro-6-fluoro-1H-indazol-7-yl)(3,3-difluoro-1-methylcyclobutyl)methanol], the 50% inhibitory concentration (IC50) in assay [1], in assay [2], in assay [3] and in assay [4] was 0.0001 to 10 µM throughout.
Regarding `COc1cc(C(O)C2(C)CCCCC2)c2[nH]ncc2c1` (centres unmarked) [Compound P-0115, (5-methoxy-1H-indazol-7-yl)(1-methylcyclohexyl)methanol], the 50% inhibitory concentration (IC50) in assay [1], in assay [2], in assay [3] and in assay [4] was 0.0001 to 10 µM each time.
On to `OC(c1cc(Cl)cc2cn[nH]c12)C1CCC1` (centres unmarked) [Compound P-0116, (5-chloro-1H-indazol-7-yl)(cyclobutyl)methanol], for which the concentration for half-maximal inhibition (IC50) in assay [1], in assay [2], in assay [3] and in assay [4] was 0.0001 to 10 µM throughout.
Turning to `CC1(C(O)c2cc(Cl)cc3cn[nH]c23)CCC1` (centres unmarked) [Compound P-0117, (5-chloro-1H-indazol-7-yl)(1-methylcyclobutyl)methanol], the IC50 in assay [1], in assay [2], in assay [3] and in assay [4] was 0.0001 to 10 µM throughout.
`CC(C)(C1CCC1)C(O)c1cc(Cl)cc2cn[nH]c12` (centres unmarked) [Compound P-0118, 1-(5-chloro-1H-indazol-7-yl)-2-cyclobutyl-2-methylpropan-1-ol]: the concentration for half-maximal inhibition (IC50) in assay [1], in assay [2], in assay [3] and in assay [4] was 0.0001 to 10 µM throughout.
Turning to `OC(c1cc(Cl)cc2cn[nH]c12)C1(C(F)(F)F)CC1` (centres unmarked) [Compound P-0119, (5-chloro-1H-indazol-7-yl)(1-(trifluoromethyl)cyclopropyl)methanol], the half-maximal inhibitory concentration (IC50) in assay [1], in assay [2], in assay [3] and in assay [4] was 0.0001 to 10 µM each time.
As for `OC(c1cc(Cl)cc2cn[nH]c12)C1(C(F)(F)F)CCC1` (centres unmarked) [Compound P-0120, (5-chloro-1H-indazol-7-yl)(1-(trifluoromethyl)cyclobutyl)methanol], the IC50 in assay [1], in assay [2], in assay [3] and in assay [4] was 0.0001 to 10 µM throughout.
`CCCC1(C(O)c2cc(Cl)cc3cn[nH]c23)CCC1` (centres unmarked) [Compound P-0121, (5-chloro-1H-indazol-7-yl)(1-propylcyclobutyl)methanol]: the IC50 in assay [1], in assay [2], in assay [3] and in assay [4] was 0.0001 to 10 µM each time.
Consider `CC1(C(O)c2c(F)c(Cl)c(F)c3cn[nH]c23)CCCCC1` (centres unmarked) [Compound P-0123, (5-chloro-4,6-difluoro-1H-indazol-7-yl)(1-methylcyclohexyl)methanol], for which the half-inhibitory concentration (IC50) in assay [1], in assay [2], in assay [3] and in assay [4] was 0.0001 to 10 µM in each case.
For the compound `CNC(=O)N1CC2CCC(C1)C2CC(O)c1cc(Cl)cc2cn[nH]c12` (centres unmarked) [Compound P-0127, 8-(2-(5-chloro-1H-indazol-7-yl)-2-hydroxyethyl)-N-methyl-3-azabicyclo[3.2.l]octane-3-carboxamide], the IC50 in assay [1], in assay [2], in assay [3] and in assay [4] was 0.0001 to 10 µM throughout.

The IC50 is the point on the concentration scale where inhibition reaches its midpoint.

Source of the values: patent US10508085B2, “Compounds and methods for IDO and TDO modulation, and indications therefor” (Plexxikon Inc., priority 2016, dated 2019).
